The values below come from US11254686B1 (Corvus Pharmaceuticals, Inc., priority 2017, dated 2022).

Each structure is given as a SMILES string. A value given as a limit tells only on which side of the number the result lay.

In one assay the target is adenosine A2A receptor (Homo sapiens (Human), UniProt P29274). Kind of assay: Adenosine receptor activity assay (Table 1), A2A activity. Particulars: read-out: Ave A2A cAMP IC50. The assay is classed as biochemical.
The target in a further assay is adenosine A2B receptor (Homo sapiens (Human), UniProt P29275). Kind of assay: Adenosine receptor activity assay (Table 1), A2B activity. Conditions: for IC50: read-out: Ave A2B cAMP IC50. In kind it is biochemical.
Where [1] appears, read: A2A activity to A2B activity (A2A/A2B).
Setting [2] is: A2A activity to the A2B activity, A2A/A2B.

adenosine A2B receptor, sequence (P29275 whole entry): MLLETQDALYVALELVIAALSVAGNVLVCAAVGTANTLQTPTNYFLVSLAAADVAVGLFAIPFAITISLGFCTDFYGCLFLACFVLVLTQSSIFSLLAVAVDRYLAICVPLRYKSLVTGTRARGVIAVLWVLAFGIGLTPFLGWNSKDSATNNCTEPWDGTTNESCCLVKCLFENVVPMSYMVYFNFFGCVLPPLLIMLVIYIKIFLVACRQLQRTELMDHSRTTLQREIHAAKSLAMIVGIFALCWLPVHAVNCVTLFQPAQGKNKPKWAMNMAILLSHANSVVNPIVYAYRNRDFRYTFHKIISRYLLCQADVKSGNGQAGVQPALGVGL
adenosine A2A receptor, sequence (P29274 whole entry): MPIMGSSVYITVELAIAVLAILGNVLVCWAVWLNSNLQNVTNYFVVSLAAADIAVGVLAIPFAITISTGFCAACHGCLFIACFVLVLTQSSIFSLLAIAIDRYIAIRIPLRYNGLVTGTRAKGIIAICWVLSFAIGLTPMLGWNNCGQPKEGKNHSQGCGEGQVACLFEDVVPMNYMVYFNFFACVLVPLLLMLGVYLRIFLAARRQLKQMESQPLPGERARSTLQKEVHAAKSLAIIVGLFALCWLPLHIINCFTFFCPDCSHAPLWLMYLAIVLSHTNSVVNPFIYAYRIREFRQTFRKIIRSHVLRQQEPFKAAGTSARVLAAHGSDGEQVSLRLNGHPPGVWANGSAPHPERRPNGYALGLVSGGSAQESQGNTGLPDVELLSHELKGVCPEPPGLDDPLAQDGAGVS

A word on the IC50: it is the midpoint of a concentration-inhibition curve. As for `COc1ccc(CNC(=O)c2nc(N[C@@H](C)c3ccncc3)nc3ccsc23)cn1` [Example Z345, (S)—N-((6-Methoxypyridin-3-yl)methyl)-2-((1-(pyridin-4-yl)ethyl)amino)thieno[3,2-d]pyrimidine-4-carboxamide], the IC50 at adenosine A2A receptor is 100 to 500 nM; at adenosine A2B receptor, 50 to 100 nM. Besides, the Ratio on adenosine A2B receptor (setting [1]) stood at 1.41.
For `COc1ccc([C@H](C)Nc2nc(C(=O)NCc3ccccn3)c3sccc3n2)cc1` [Example Z466, (S)-2-((1-(4-Methoxyphenyl)ethyl)amino)-N-(pyridin-2-ylmethyl)thieno[3,2-d]pyrimidine-4-carboxamide], the concentration for half-maximal inhibition (IC50) is 10 to 50 nM at adenosine A2A receptor and over 500 nM on adenosine A2B receptor. The Ratio at adenosine A2B receptor (setting [2]) came to 0.05.
In the case of `O=C(NCc1cncnc1)c1nc(NCc2cncnc2)nc2ccsc12` [Example Z4, N-(Pyrimidin-5-ylmethyl)-2-((pyrimidin-5-ylmethyl)amino)thieno[3,2-d]pyrimidine-4-carboxamide], the IC50 at adenosine A2A receptor and at adenosine A2B receptor was over 500 nM throughout. Besides, the Ratio at adenosine A2B receptor (setting [1]) came to 0.95.
For `Cc1cc2nc(N[C@@H](C)c3cccnc3)nc(C(=O)N[C@H]3C[C@@H](O)C3)c2s1` [Example Z503, N-((1s,3R)-3-hydroxycyclobutyl)-6-methyl-2-(((S)-1-(pyridin-3-yl)ethyl)amino)thieno[3,2-d]pyrimidine-4-carboxamide], the IC50 was over 500 nM at adenosine A2A receptor and 10 to 50 nM on adenosine A2B receptor. For the same molecule, on adenosine A2B receptor (setting [2]), the Ratio was 18.01.
Turning to `COc1cncc(NC(=O)c2nc(N[C@@H](C)c3ccccn3)nc3ccsc23)c1` [Example Z307, (S)—N-(5-Methoxypyridin-3-yl)-2-((1-(pyridin-2-yl)ethyl)amino)thieno[3,2-d]pyrimidine-4-carboxamide], the 50% inhibitory concentration (IC50) at adenosine A2A receptor was in the range of 100 to 500 nM; on adenosine A2B receptor, 10 to 50 nM. Further, the Ratio on adenosine A2B receptor (setting [1]) is on record as 5.89.
In the case of `CCOc1ccc(CNc2nc(C(=O)NCCc3cccc(O)c3)c3sccc3n2)cn1` [Example Z439, 2-(((6-Ethoxypyridin-3-yl)methyl)amino)-N-(3-hydroxyphenethyl)thieno[3,2-d]pyrimidine-4-carboxamide], the values for the IC50 at adenosine A2A receptor and on adenosine A2B receptor were 100 to 500 nM and over 500 nM, respectively. Besides, the Ratio on adenosine A2B receptor (setting [2]) was determined as 0.29.
As to `C[C@H](Nc1nc(C(=O)NCC2CCN(Cc3ccccc3)CC2)c2sccc2n1)c1ccccn1` [Example Z151, (S)—N-((1-Benzylpiperidin-4-yl)methyl)-2-((1-(pyridin-2-yl)ethyl)amino)thieno[3,2-d]pyrimidine-4-carboxamide], the IC50 on adenosine A2A receptor and on adenosine A2B receptor was 100 to 500 nM each time.
Regarding `C[C@H](Nc1nc(C(=O)NC(CO)c2cccnc2)c2sccc2n1)c1ccccn1` (stereo partly drawn) [Example Z269, N-(2-Hydroxy-1-(pyridin-3-yl)ethyl)-2-(((S)-1-(pyridin-2-yl)ethyl)amino)thieno[3,2-d]pyrimidine-4-carboxamide], the results for the IC50 at adenosine A2A receptor and at adenosine A2B receptor were 100 to 500 nM and over 500 nM, respectively. Besides, the Ratio on adenosine A2B receptor (setting [1]) was 0.36.
As for `COC[C@H]1CCN1C(=O)c1nc(N[C@@H](C)c2cncc(F)c2)nc2ccsc12` [Example Z568, (2-(((S)-1-(5-Fluoropyridin-3-yl)ethyl)amino)thieno[3,2-d]pyrimidin-4-yl)((R)-2-(methoxymethyl)azetidin-1-yl)methanone], the IC50 at adenosine A2A receptor was over 500 nM; at adenosine A2B receptor it was 50 to 100 nM. Further, the Ratio on adenosine A2B receptor (setting [2]) is 12.84.
Consider `CC(=O)N[C@H]1CCN(C(=O)c2nc(N[C@@H](C)c3cccnc3)nc3ccsc23)C1` [Example Z322, N—((S)-1-(2-(((S)-1-(Pyridin-3-yl)ethyl)amino)thieno[3,2-d]pyrimidine-4-carbonyl)pyrrolidin-3-yl)acetamide], for which the IC50 was over 500 nM at adenosine A2A receptor and 100 to 500 nM at adenosine A2B receptor. In addition, the Ratio at adenosine A2B receptor (setting [1]) was found to be 6.33.
As for `CCOc1ccc(CNc2nc(C(=O)N3CCC3)c3sccc3n2)cn1` [Example Z453, Azetidin-1-yl(2-(((6-ethoxypyridin-3-yl)methyl)amino)thieno[3,2-d]pyrimidin-4-yl)methanone], the half-inhibitory concentration (IC50) at adenosine A2A receptor and on adenosine A2B receptor was 100 to 500 nM throughout. The Ratio at adenosine A2B receptor (setting [2]) is recorded as 0.43.
Consider `C[C@H](Nc1nc(C(=O)N2CC(O)C2)c2sc(N)cc2n1)c1ccccn1` [Example Z205, (S)-(6-Amino-2-((1-(pyridin-2-yl)ethyl)amino)thieno[3,2-d]pyrimidin-4-yl)(3-hydroxyazetidin-1-yl)methanone], for which the half-inhibitory concentration (IC50) on adenosine A2A receptor is 100 to 500 nM; at adenosine A2B receptor, 10 to 50 nM. For the same molecule, the Ratio on adenosine A2B receptor (setting [1]) worked out at 27.10.
On the same counts, the results for `O=C(NCc1cccnn1)c1nc(NCc2cccnn2)nc2ccsc12` [Example Z35, N-(Pyridazin-3-ylmethyl)-2-((pyridazin-3-ylmethyl)amino)thieno[3,2-d]pyrimidine-4-carboxamide] are over 500 nM, over 500 nM and 1.00.
In the case of `CCO[C@H]1CCN(C(=O)c2nc(N[C@@H](C)c3ccccn3)nc3ccsc23)C1` [Example Z442, ((S)-3-Ethoxypyrrolidin-1-yl)(2-(((S)-1-(pyridin-2-yl)ethyl)amino)thieno[3,2-d]pyrimidin-4-yl)methanone], the IC50 on adenosine A2A receptor and at adenosine A2B receptor was 100 to 500 nM each time. The Ratio at adenosine A2B receptor (setting [2]) stood at 2.19.
Take `C[C@H](Nc1nc(C(=O)NC2CN(C(=O)C(C)(C)C)C2)c2sccc2n1)c1cncc(F)c1` [Example Z545, (S)-2-((1-(5-Fluoropyridin-3-yl)ethyl)amino)-N-(1-pivaloylazetidin-3-yl)thieno[3,2-d]pyrimidine-4-carboxamide]: the 50% inhibitory concentration (IC50) at adenosine A2A receptor and on adenosine A2B receptor was 100 to 500 nM throughout.
In the case of `C[C@H](Nc1nc(C(=O)N(C)CCc2ccc(O)cc2)c2sccc2n1)c1cncc(F)c1` [Example Z396, (S)-2-((1-(5-Fluoropyridin-3-yl)ethyl)amino)-N-(4-hydroxyphenethyl)-N-methylthieno[3,2-d]pyrimidine-4-carboxamide], the IC50 on adenosine A2A receptor and at adenosine A2B receptor was over 500 nM throughout. The Ratio on adenosine A2B receptor (setting [1]) was found to be 6.83.
For the molecule `C[C@H](Nc1nc(C(=O)NCc2cncc(F)c2)c2sccc2n1)c1cccnc1` [Example Z20, (S)—N-((5-Fluoropyridin-3-yl)methyl)-2-((1-(pyridin-3-yl)ethyl)amino)thieno[3,2-d]pyrimidine-4-carboxamide], the half-inhibitory concentration (IC50) at adenosine A2A receptor and on adenosine A2B receptor was 100 to 500 nM in each case. The Ratio at adenosine A2B receptor (setting [1]) is 0.62.
In the case of `COc1ccc([C@H](C)Nc2nc(C(=O)N3CC(NC(C)=O)C3)c3sc(C)cc3n2)cc1` [Example Z556, (S)—N-(1-(2-((1-(4-Methoxyphenyl)ethyl)amino)-6-methylthieno[3,2-d]pyrimidine-4-carbonyl)azetidin-3-yl)acetamide], the IC50 at adenosine A2A receptor lay in the range of 50 to 100 nM; on adenosine A2B receptor, 100 to 500 nM. Besides, the Ratio on adenosine A2B receptor (setting [2]) came to 0.22.
Take `C[C@H](Nc1nc(C(=O)N2CCC(C(=O)NC(C)(C)C)C2)c2sccc2n1)c1cncc(F)c1` (stereo partly drawn) [Example Z548, N-(tert-Butyl)-1-(2-(((S)-1-(5-fluoropyridin-3-yl)ethyl)amino)thieno[3,2-d]pyrimidine-4-carbonyl)pyrrolidine-3-carboxamide]: the IC50 at adenosine A2A receptor fell in the range of 100 to 500 nM; on adenosine A2B receptor, 10 to 50 nM.
Take `C[C@H](Nc1nc(C(=O)NCc2ccc(C(F)(F)F)nc2)c2sccc2n1)c1ccccn1` [Example Z79, (S)-2-((1-(Pyridin-2-yl)ethyl)amino)-N-((6-(trifluoromethyl)pyridin-3-yl)methyl)thieno[3,2-d]pyrimidine-4-carboxamide]: the half-inhibitory concentration (IC50) on adenosine A2A receptor was 100 to 500 nM; at adenosine A2B receptor, 50 to 100 nM. For the same molecule, the Ratio at adenosine A2B receptor (setting [1]) turned out to be 1.20.
On the same counts, the results for `C[C@H](Nc1nc(C(=O)NCCc2ccc(Cl)cc2)c2sccc2n1)c1cncc(F)c1` [Example Z385, (S)—N-(4-Chlorophenethyl)-2-((1-(5-fluoropyridin-3-yl)ethyl)amino)thieno[3,2-d]pyrimidine-4-carboxamide] are over 500 nM, 50 to 100 nM and 7.44.
`COc1cncc(CNc2nc(C(=O)N3CC(C)C3)c3sccc3n2)c1` [Example Z117, (2-(((5-Methoxypyridin-3-yl)methyl)amino)thieno[3,2-d]pyrimidin-4-yl)(3-methylazetidin-1-yl)methanone]: the IC50 was over 500 nM on adenosine A2A receptor and 50 to 100 nM at adenosine A2B receptor. Further, the Ratio on adenosine A2B receptor (setting [1]) came to 10.87.
`COCC(Nc1nc(C(=O)N2CC(OC)C2)c2sccc2n1)c1cccnc1` (stereo not drawn) [Example Z217, (2-((2-Methoxy-1-(pyridin-3-yl)ethyl)amino)thieno[3,2-d]pyrimidin-4-yl)(3-methoxyazetidin-1-yl)methanone]: the IC50 is 50 to 100 nM on adenosine A2A receptor and 10 to 50 nM at adenosine A2B receptor. Further, on adenosine A2B receptor (setting [1]), the Ratio was 5.70.
For `O=C(c1nc(NCc2ccc(C(F)(F)F)nc2)nc2ccsc12)N1CCCC1` [Example Z76, Pyrrolidin-1-yl(2-(((6-(trifluoromethyl)pyridin-3-yl)methyl)amino)thieno[3,2-d]pyrimidin-4-yl)methanone], the IC50 at adenosine A2A receptor was 100 to 500 nM; at adenosine A2B receptor, over 500 nM. For the same molecule, the Ratio at adenosine A2B receptor (setting [1]) was determined as 0.22.
Turning to `C[C@H](Nc1nc(C(=O)N2CCNC2)c2sccc2n1)c1cccnc1` [Example Z148, (S)-Imidazolidin-1-yl(2-((1-(pyridin-3-yl)ethyl)amino)thieno[3,2-d]pyrimidin-4-yl)methanone], the IC50 on adenosine A2A receptor and at adenosine A2B receptor was over 500 nM in each case. The Ratio at adenosine A2B receptor (setting [1]) was 4.87.
For `Cc1cc2nc(N[C@@H](C)c3cccnc3)nc(C(=O)NCC[C@H]3CCNC3)c2s1` [Example Z501, 6-Methyl-2-(((S)-1-(pyridin-3-yl)ethyl)amino)-N-(2-((R)-pyrrolidin-3-yl)ethyl)thieno[3,2-d]pyrimidine-4-carboxamide], the IC50 on adenosine A2A receptor and at adenosine A2B receptor was over 500 nM in each case. The Ratio at adenosine A2B receptor (setting [2]) is reported as 8.68.
